Results on 35 compounds are retold here after patent publication US11802131B2, “Glutarimides for medical treatment” (C4 Therapeutics, Inc., priority 2017, dated 2023).

Where only a bound is given, the exact number is not on record here.

hCereblon(M1-L442)_hDDB1(M1-H1140), sequence (Q96SW2 whole entry): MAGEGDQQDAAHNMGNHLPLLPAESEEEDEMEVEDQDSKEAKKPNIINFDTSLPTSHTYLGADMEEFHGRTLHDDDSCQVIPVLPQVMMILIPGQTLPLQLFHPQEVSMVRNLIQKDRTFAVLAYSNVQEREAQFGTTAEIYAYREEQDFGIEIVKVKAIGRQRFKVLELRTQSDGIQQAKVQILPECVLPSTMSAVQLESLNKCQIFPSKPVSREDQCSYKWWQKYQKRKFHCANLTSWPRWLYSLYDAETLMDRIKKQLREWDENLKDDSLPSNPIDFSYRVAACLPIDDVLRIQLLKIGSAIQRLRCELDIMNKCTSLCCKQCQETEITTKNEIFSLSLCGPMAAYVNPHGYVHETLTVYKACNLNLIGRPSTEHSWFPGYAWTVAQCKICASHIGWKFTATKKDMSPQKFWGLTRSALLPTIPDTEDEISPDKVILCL
hCereblon(M1-L442)_hDDB1(M1-H1140), sequence (Q16531 whole entry partner): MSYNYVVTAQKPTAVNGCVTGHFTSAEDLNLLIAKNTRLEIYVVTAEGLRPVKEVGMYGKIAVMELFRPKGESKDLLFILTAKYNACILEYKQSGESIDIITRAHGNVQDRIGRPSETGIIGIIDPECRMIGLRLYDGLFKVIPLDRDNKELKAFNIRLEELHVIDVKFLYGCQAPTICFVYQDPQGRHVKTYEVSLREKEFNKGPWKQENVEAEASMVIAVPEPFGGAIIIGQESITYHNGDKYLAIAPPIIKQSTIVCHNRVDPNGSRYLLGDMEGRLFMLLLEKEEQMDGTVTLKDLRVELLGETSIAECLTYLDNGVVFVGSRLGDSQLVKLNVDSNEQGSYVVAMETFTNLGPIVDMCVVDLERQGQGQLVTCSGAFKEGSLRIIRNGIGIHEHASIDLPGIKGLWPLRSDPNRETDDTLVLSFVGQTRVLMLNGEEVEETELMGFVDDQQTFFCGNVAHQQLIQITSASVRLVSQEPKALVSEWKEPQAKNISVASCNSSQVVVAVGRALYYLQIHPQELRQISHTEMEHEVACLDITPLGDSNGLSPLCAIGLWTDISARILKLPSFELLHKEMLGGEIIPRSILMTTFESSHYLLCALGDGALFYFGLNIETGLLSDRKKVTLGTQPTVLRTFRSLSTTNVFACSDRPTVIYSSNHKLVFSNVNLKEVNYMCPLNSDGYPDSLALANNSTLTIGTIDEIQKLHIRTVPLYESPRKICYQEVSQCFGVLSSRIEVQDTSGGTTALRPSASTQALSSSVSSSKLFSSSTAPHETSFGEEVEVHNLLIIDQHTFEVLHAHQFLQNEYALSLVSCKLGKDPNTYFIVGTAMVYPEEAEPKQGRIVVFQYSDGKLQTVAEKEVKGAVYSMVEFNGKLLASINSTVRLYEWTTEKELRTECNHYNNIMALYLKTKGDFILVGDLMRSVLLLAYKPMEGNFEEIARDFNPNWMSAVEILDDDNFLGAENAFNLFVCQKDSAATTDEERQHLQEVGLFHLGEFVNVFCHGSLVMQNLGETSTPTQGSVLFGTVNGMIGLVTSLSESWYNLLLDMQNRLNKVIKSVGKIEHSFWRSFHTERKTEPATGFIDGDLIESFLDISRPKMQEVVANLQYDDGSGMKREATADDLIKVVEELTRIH

The target in the assay is hCereblon(M1-L442)_hDDB1(M1-H1140) (Homo sapiens (Human), UniProt Q96SW2). Description: Fluorescence direct binding protocol (tryptophan fluorescence titration). To be noted: 20° C., excited at 280 nm, recorded at 340 nm, assay buffer 50 mM Hepes 7.4 200 mM NaCl; read-out: Fluorescence h-Cereblon_DDB1 Mean Kd_EQ. Here is the method:
Fluorescence Direct Binding Protocol
Determination of the affinities of compounds to protein containing one or more tryptophan is measurable by monitoring the fluorescence emission in direct mode. The measurements depending on the protein available amounts are performed either manually in a cuvette on ISS-PC1 photon counting spectrofluorometer or automatically in well plates on a fluorescence plate reader device. Fluorescence titrations are performed at 20° C. in the chosen binding assay buffer by using a defined constant protein concentration against ligand concentration variations. Small aliquots of known ligand concentration solubilized in DMSO were added and the fluorescence, excited at 280 nm, was recorded at 340 nm. The fluorescence intensity was corrected for protein dilution and for the filter effect (Birdsall et al.^72).
1) Optimization of measurement parameters to minimize protein consumption and to minimize the dilution effect and the DMSO content
2) Titration measurements of the protein against ligand by at least 12 titration steps to obtain a good s-curve fit
3) Repeat the same titration measurements with the ligand alone to enable correction
4) Check the stability of the protein once by titration against DMSO alone
5) Determination of the molar extinction coefficients of the ligand at 280 and 340 nm with help of an UV-spectrophotometer
6) Use Excel template for the correction of the measured raw data
7) Use GraphPad Prism software for the quadratic binding fit and the KD evaluation.
Turning to `COC(=O)c1ccc2c(C(=O)N[C@H]3CCC(=O)NC3=O)c[nH]c2c1` [Example 42, Methyl (S)-3-((2,6-dioxopiperidin-3-yl)carbamoyl)-1H-indole-6-carboxylate], the Kd was 18 nM.
With `O=C1CC[C@@H](NC(=O)[C@H]2CCNc3ccccc32)C(=O)N1` [Example 43, (4S)-N-[(3R)-2,6-Dioxopiperidin-3-yl]-1,2,3,4-tetrahydroquinoline-4-carboxamide] the figure was less than 1 nM; with `O=C1CC[C@@H](NC(=O)[C@@H]2CCNc3ccccc32)C(=O)N1` [Example 44, (4R)-N-[(3R)-2,6-Dioxopiperidin-3-yl]-1,2,3,4-tetrahydroquinoline-4-carboxamide], 12 nM; with `O=C1CC[C@@H](NC(=O)[C@@H]2CCCc3ccccc32)C(=O)N1` [Example 45, (1R)-N-[(3R)-2,6-Dioxopiperidin-3-yl]-1,2,3,4-tetrahydronaphthalene-1-carboxamide], 4 nM.
On to `O=C1CC[C@H](NC(=O)[C@@H]2CCCc3ccccc32)C(=O)N1` [Example 46, (1R)-N-[(3S)-2,6-Dioxopiperidin-3-yl]-1,2,3,4-tetrahydronaphthalene-1-carboxamide], for which the Kd was determined as 39 nM.
Take `O=C1CC[C@H](NC(=O)c2cnn3ccccc23)C(=O)N1` [Example 47, (S)-N-(2,6-Dioxopiperidin-3-yl)pyrazolo[1,5-a]pyridine-3-carboxamide]: the Kd is less than 1 nM.
With `O=C1CC[C@@H](NC(=O)c2cnn3ccccc23)C(=O)N1` [Example 48, (R)-N-(2,6-Dioxopiperidin-3-yl)pyrazolo[1,5-a]pyridine-3-carboxamide], the Kd is less than 1 nM.
In the case of `O=C1CC[C@@H](NC(=O)c2n[nH]c3ccccc23)C(=O)N1` [Example 49, (R)-N-(2,6-Dioxopiperidin-3-yl)-1H-indazole-3-carboxamide], the Kd was less than 1 nM.
`O=C1CC[C@H](NC(=O)c2ncc3ccccn23)C(=O)N1` [Example 50, (S)-N-(2,6-Dioxopiperidin-3-yl)imidazo[1,5-a]pyridine-3-carboxamide]: the Kd was 4 nM.
Turning to `O=C1CC[C@@H](NC(=O)c2ncc3ccccn23)C(=O)N1` [Example 51, (R)-N-(2,6-Dioxopiperidin-3-yl)imidazo[1,5-a]pyridine-3-carboxamide], the Kd was determined as 3 nM.
`O=C1CC[C@H](NC(=O)c2ccc3ccccn23)C(=O)N1` [Example 52, (S)-N-(2,6-Dioxopiperidin-3-yl)indolizine-3-carboxamide]: the Kd stood at 6 nM.
`O=C1CC[C@@H](NC(=O)c2ccc3ccccn23)C(=O)N1` [Example 53, (R)-N-(2,6-Dioxopiperidin-3-yl)indolizine-3-carboxamide]: the Kd amounted to 2 nM.
Regarding `O=C1CC[C@H](NC(=O)c2cnc3ccccn23)C(=O)N1` [Example 54, (S)-N-(2,6-Dioxopiperidin-3-yl)imidazo[1,2-a]pyridine-3-carboxamide], the Kd was 1 nM.
`O=C1CC[C@@H](NC(=O)c2cnc3ccccn23)C(=O)N1` [Example 55, (R)-N-(2,6-Dioxopiperidin-3-yl)imidazo[1,2-a]pyridine-3-carboxamide]: the Kd is less than 1 nM.
As to `O=C1CC[C@H](NC(=O)c2cnn3cccnc23)C(=O)N1` [Example 56, (S)-N-(2,6-Dioxopiperidin-3-yl)pyrazolo[1,5-a]pyrimidine-3-carboxamide], the Kd amounted to 8 nM.
Regarding `O=C1CC[C@@H](NC(=O)c2cnn3cccnc23)C(=O)N1` [Example 57, (R)-N-(2,6-Dioxopiperidin-3-yl)pyrazolo[1,5-a]pyrimidine-3-carboxamide], the Kd was found to be 7 nM.
For `CN(C(=O)N1CCc2ccccc21)C1CCC(=O)NC1=O` (centres unmarked) [Example 58, N-(2,6-Dioxopiperidin-3-yl)-N-methylindoline-1-carboxamide], the Kd is 22 nM.
In the case of `CN(C(=O)N1CCc2ccccc21)[C@H]1CCC(=O)NC1=O` [Example 59, (S)-N-(2,6-Dioxopiperidin-3-yl)-N-methylindoline-1-carboxamide], the Kd was 20 nM.
On to `CN(C(=O)N1CCc2ccccc21)[C@@H]1CCC(=O)NC1=O` [Example 60, (R)-N-(2,6-Dioxopiperidin-3-yl)-N-methylindoline-1-carboxamide], for which the Kd came to 30 nM.
In the case of `O=C1CC[C@H](NC(=O)Cc2cccnc2)C(=O)N1` [Example 61, (S)-N-(2,6-Dioxopiperidin-3-yl)-2-(pyridin-3-yl)acetamide], the Kd came to 967 nM.
With `CN(C(=O)N1CCc2cccnc21)C1CCC(=O)NC1=O` (centres unmarked) [Example 62, N-(2,6-Dioxopiperidin-3-yl)-N-methyl-2,3-dihydro-1H-pyrrolo[2,3-b]pyridine-1-carboxamide] the figure was 29 nM; with `O=C1CC[C@@H](NC(=O)Cc2cccnc2)C(=O)N1` [Example 63, (R)-N-(2,6-Dioxopiperidin-3-yl)-2-(pyridin-3-yl)acetamide], 19 nM.
For the compound `O=C1CC[C@@H](NC(=O)N2CCCc3cccnc32)C(=O)N1` [Example 64, (R)-N-(2,6-Dioxopiperidin-3-yl)-3,4-dihydro-1,8-naphthyridine-1(2H)-carboxamide], the Kd was found to be 641 nM.
`CC(=O)Nc1ccc(CC(=O)N[C@H]2CCC(=O)NC2=O)cc1` [Example 65, (S)-2-(4-Acetamidophenyl)-N-(2,6-dioxopiperidin-3-yl)acetamide]: the Kd is 23 nM.
As for `CC(=O)Nc1ccc(CC(=O)N[C@@H]2CCC(=O)NC2=O)cc1` [Example 66, (R)-2-(4-Acetamidophenyl)-N-(2,6-dioxopiperidin-3-yl)acetamide], the Kd is 86 nM.
On to `CC(=O)Nc1cccc(CC(=O)N[C@@H]2CCC(=O)NC2=O)c1` [Example 67, (R)-2-(3-Acetamidophenyl)-N-(2,6-dioxopiperidin-3-yl)acetamide], for which the Kd came out at 3 nM.
Regarding `CC(=O)Nc1cccc(CC(=O)N[C@H]2CCC(=O)NC2=O)c1` [Example 68, (S)-2-(3-Acetamidophenyl)-N-(2,6-dioxopiperidin-3-yl)acetamide], the Kd is 60 nM.
In the case of `O=C1CC[C@H](NC(=O)Cc2ccc3c(c2)CC(=O)N3)C(=O)N1` [Example 69, (S)-N-(2,6-Dioxopiperidin-3-yl)-2-(2-oxoindolin-5-yl)acetamide], the Kd is 15 nM.
Take `O=C1CC[C@@H](NC(=O)Cc2ccc3c(c2)CC(=O)N3)C(=O)N1` [Example 70, (R)-N-(2,6-Dioxopiperidin-3-yl)-2-(2-oxoindolin-5-yl)acetamide]: the Kd stood at 3 nM.
On to `Cn1nc(C(=O)N[C@H]2CCC(=O)NC2=O)c2c1CCN(C(=O)OC(C)(C)C)C2` [Example 71, tert-Butyl (S)-3-((2,6-dioxopiperidin-3-yl)carbamoyl)-1-methyl-1,4,6,7-tetrahydro-5H-pyrazolo[4,3-c]pyridine-5-carboxylate], for which the Kd came to 4 nM.
Consider `Cn1nc(C(=O)N[C@H]2CCC(=O)NC2=O)c2c1CCNC2` [Example 72, (S)-N-(2,6-Dioxopiperidin-3-yl)-1-methyl-4,5,6,7-tetrahydro-1H-pyrazolo[4,3-c]pyridine-3-carboxamide], for which the Kd worked out at 194 nM.
Next, `CN1C(=O)CCC(NC(=O)[C@H]2CCCc3ccccc32)C1=O` (stereo partly drawn) [Example 73, (1S)-N-(1-Methyl-2,6-dioxopiperidin-3-yl)-1,2,3,4-tetrahydronaphthalene-1-carboxamide]: 28 nM; `Cc1sc2c(c1C)C(c1ccc(Cl)cc1)=N[C@@H](CC(=O)NCCCCCC(=O)N1CC[C@H](C(=O)N[C@H]3CCC(=O)NC3=O)c3ccccc31)c1nnc(C)n1-2` [Example A, (4S)-1-[6-[[2-[(9S)-7-(4-Chlorophenyl)-4,5,13-trimethyl-3-thia-1,8,11,12-tetrazatricyclo[8.3.0.02,6]trideca-2(6),4,7,10,12-pentaen-9-yl]acetyl]amino]hexanoyl]-N-[(3S)-2,6-dioxo-3-piperidyl]-3,4-dihydro-2H-quinoline-4-carboxamide]: 10 nM; `Cc1sc2c(c1C)C(c1ccc(Cl)cc1)=N[C@@H](CC(=O)NCCCCCC(=O)N1CC[C@H](C(=O)N[C@@H]3CCC(=O)NC3=O)c3ccccc31)c1nnc(C)n1-2` [Example B, (4S)-1-[6-[[2-[(9S)-7-(4-Chlorophenyl)-4,5,13-trimethyl-3-thia-1,8,11,12-tetrazatricyclo[8.3.0.02,6]trideca-2(6),4,7,10,12-pentaen-9-yl]acetyl]amino]hexanoyl]-N-[(3R)-2,6-dioxo-3-piperidyl]-3,4-dihydro-2H-quinoline-4-carboxamide]: 37 nM.
On to `Cc1sc2c(c1C)C(c1ccc(Cl)cc1)=N[C@@H](CC(=O)NCCOCCOCCOCC(=O)N1CC[C@@H](C(=O)N[C@H]3CCC(=O)NC3=O)c3ccccc31)c1nnc(C)n1-2` [Example C, (4R)-1-[2-[2-[2-[2-[[2-[(9S)-7-(4-Chlorophenyl)-4,5,13-trimethyl-3-thia-1,8,11,12-tetrazatricyclo[8.3.0.02,6]trideca-2(6),4,7,10,12-pentaen-9-yl]acetyl]amino]ethoxy]ethoxy]ethoxy]acetyl]-N-[(3S)-2,6-dioxo-3-piperidyl]-3,4-dihydro-2H-quinoline-4-carboxamide], for which the Kd is 8 nM.
